Test results reported in US20230002446A1, “ANTI-INFLAMMATORY AGENTS” (The University of Sydney, priority 2019, published 2023).
Where no end group is shown, it is not given here. [ ]: non-standard residue; d: D form. Ala(3-Me-diazirin-3-yl) = CC1(C[C@H](N)C(=O)O)N=N1; PEG = not defined here

What was measured:
C57BL/6 mice [1] = experiment: imiquimod-induced psoriasis model; type: in vivo
Experimental: FIG. 4—Peptide administration reduces local disease severity in a mouse model of psoriasis. (A) Experimental outline (B) Clinical scores of mice receiving PBS or peptide RP23 (SEQ ID NO:12) injection, compared to daily (0-4 days) topical application of glucocorticoid on the back and ear. (C) Measures of disease local to the peptide RP23 injection site. Redness was measured using an unbiased erythema meter and skin thickness by manual callipers. (D) Spleen weight at day 5 as a measure of systemic immune suppression. […] Data are presented as mean±S.E.M. Statistical significance was determined by ANOVA with Dunnett's multiple comparison test, *p<0.05, **p<0.01, ***p<0.001, ****p<0.0001.
FIG. 10. Therapeutic synergy of RP23 and topical steroid in the murine imiquimod-induced psoriasis model. Aldara cream (5% imiquimod, 57.5 mgs) was applied daily (days 0-4) to the backs of C57BL/6 female mice to induce psoriasis. Clinical scores (PASI), modified psoriasis area and severity index) of mice receiving (A) PBS or RP23 injection at day −1, with or without topical application of glucocorticoid (0.05% betamethasone dipropionate, “BD” 30 mgs) on the back at day 0 (B) PBS or RP23 injection at day 1 and topical application of glucocorticoid at day 1, in comparison to PBS injection only at day −1. Data are the means+/−SEM (n=5). Statistical significance was determined by ANOVA with Dunnett's multiple comparison test to PBS only control, *p<0.05, **p<0.01, ***p<0.001, ****p<0.0001.
The backs of 8-week old female C57BL/6 mice (Australian BioResources) were coarse shaved. A minimum of 24 hours later, 10 nmol RP23 was delivered via sub-cutaneous injection at the lower back in 200 μl phosphate buffered saline (PBS). Groups of mice acting as positive controls for disease development received injection of PBS only. One or seven days later, psoriasis-like inflammation was induced via topical application of 5% imiquimod cream (Aldara, Inova Pharmaceuticals) to the shaved back (57.5 mgs) and one ear (5 mg, divided between dorsal and ventral sides). The contralateral ear served as a negative control for imiquimod-induced inflammation. Imiquimod application was repeated daily for four consecutive days. C57BL/6 mice experience rapid weight loss (up to 20%) upon application of imiquimod cream. Supportive care was provided in the form of dietary supplementation commenced 2 days prior to imiquimod application, and intra-peritoneal injection of 300 μl sterile PBS on days two and three of imiquimod application. Disease progression was monitored for five days, by recording weight loss and grading disease of the back skin using a modified Psoriasis Area and Severity Index (PASI) clinical scoring system, that assessed only disease severity. Additionally, erythema meter (DSM II ColorMeter, Cortex Technology, Denmark) readings were taken at four quadrants on the back skin and skin backfold thickness measurements were recorded using manual callipers. Disease progression of the ear skin was determined by recording ear thickness, measured by manual callipers. As a positive control for immune suppressive therapy, groups of mice received daily topical application of betamethasone dipropionate 0.05% (MSD) cream (30 mgs on the back, 10 mgs on the ear).
Aldara cream (5% imiquimod, 57.5 mgs) was applied daily (days 0-4) to the backs of C57BL/6 female mice to induce psoriasis. Clinical scores (PASI, modified psoriasis area and severity index) of mice receiving prophylactic PBS or RP23 (at day −1), with or without topical application of glucocorticoid (0.05% betamethasone dipropionate, 30 mgs) to the back at day 0, were determined (FIG. 10A).
RP23 and BD therapy were also tested when given synergistically at a therapeutic timepoint (at day 1). Psoriasis was induced as above, but clinical scores were determined daily for 10 days after ceasing imiquimod application at day 5, to record the rate and degree of psoriasis disease resolution (FIG. 10B).

C57BL/6 mice [2] = experiment: contact hypersensitivity model (DNFB-induced contact dermatitis); type: in vivo; details: for specific increase in ear thickness: equivalent molar amount of 10 nmol RP23, subcutaneously at the abdomen (FIG. 9); for inflammatory response (ear thickness over 72 hours): 10 nmol subcutaneously at the abdomen, compared to PBS (FIG. 8)
Experimental: FIG. 2—Peptide administration reduces inflammation in a mouse model of contact dermatitis and reduces myeloid inflammatory infiltrate. (A) Experimental outline of DNFB-induced contact dermatitis. (B) Ear thickness of peptide RP23 (SEQ ID NO:12) treated mice, repeated 3 times. […] Data are presented as mean±S.E.M. Statistical significance was determined (B) by multiple t tests (C) by ANOVA with Dunnett's multiple comparison test, *p<0.05, **p<0.01, ***p<0.001.
FIG. 3—The peptide effect is dependent on the peptide sequence and dose. (A) PBS, scrambled peptide or peptide MUC1SP ([…]; SEQ ID NO: 3) was injected subcutaneously seven days prior to sensitising C57BL/6 mice (n=5) with DNFB on the abdomen. […] (B) A comparison of the immunosuppressive effect of peptide RP23 (SEQ ID NO:12) and MUC1SP (SEQ ID NO: 3). (C) SEQ ID NO:12 suppressed immunity in a dose dependent manner. (D) Addition of GM-CSF to the SEQ ID NO:12 injection abrogated the immune suppression. Data are the means±S.E.M.
FIG. 8—Effects of peptide variants on the inflammatory response. Mice received one injection of PBS or one of the following peptides (10 nmol) subcutaneously at the abdomen (A) peptide RP23 (SEQ ID NO: 12), peptide AF594-RP23 (SEQ ID NO: 21), peptide K4-G3-MUC1SP (SEQ ID NO:22) or MUC1SP C fragment (SEQ ID NO: 2). Five days later, mice were challenged with DNFB at a distal site, on the ears. The thickness of the ears was measured over 72 hours.
FIG. 9—Effects of further peptide variants, without N-terminal methionine, on the inflammatory response in a model of contact dermatitis. Mice received one injection of PBS, RP23 (SEQ ID NO:12) (10 nmol) or one of the peptide variants indicated in the table including SEQ ID NO: 32 and 35 as described herein (equivalent molar amount of RP23), subcutaneously at the abdomen. Photoleucine replaces leucine where indicated, these molecules used for photo-crosslinking studies. Seven days later, abdominal skin was sensitised with a contact irritant (DNFB) and five days later, mice were challenged with DNFB at a distal site, on the ears. (A) Specific increase in ear thickness over 72 hours, data are the means+/−SEM (n=6). Statistical significance was determined by ANOVA with Dunnett's multiple comparison test to PBS only control, **p<0.01. (B) Specific increase in ear thickness at 24 hours post-challenge. Data are the means+/−SEM (n=6). Statistical significance was determined by t-test to relevant control, as indicated, *p<0.05, **p<0.01, ns=not significant.
The abdomens of 8-week old female C57BL/6 mice (Australian BioResources) were coarse shaved. A minimum of 24 hours later, RP23 (SEQ ID NO:12) was delivered via sub-cutaneous injection at the abdomen in 50 μl phosphate buffered saline. Seven days later, mice were topically sensitised to 1-fluoro-2,4-dinitrobenzene (DNFB, 0.5 vol %) in olive oil/acetone (1:4, v/v, 30 μl) via application to the shaved abdomen. Five days after sensitisation, mice were challenged on the ears with topical DNFB (0.25 vol %) in olive oil/acetone (1:4, v/v, 15 μl per ear). Ear thickness was measured daily using manual callipers from immediately before challenge, up to 96 hours post challenge. Positive controls for ear swelling consisted of mice that were injected with PBS instead of RP23. Negative or irritant controls consisted of a group of mice that received the DNFB challenge, but not the sensitisation. The average of the change in ear thickness from this control group was subtracted from the change in ear thickness of other samples to account for non-specific irritation due to the application of DNFB, olive oil and acetone.
The inventors then conducted additional in vivo studies, using a model of contact hypersensitivity, to determine the portion of RP23 responsible for its immunomodulatory activity. Mice received one injection of peptide (10 nmol) subcutaneously at the abdomen, seven days prior to sensitisation of the skin with a contact irritant (DNFB). […]

C57BL/6 mice [3] = details: mouse, in vivo
Experimental: AF594-RP23^+ cells were identified by flow cytometry 24 hours after administration to C57BL/6 mice. (A) RP23 was injected subcutaneously at the lower back. […] (B) RP23 was delivered to the lungs by intranasal instillation. The percentage distribution of total RP23^+ leukocytes amongst immune cell subsets in the lungs is shown. Data are the means+/−SEM (n=4).
AF594-RP23+ cells were identified by flow cytometry 24 hours after administration to C57BL/6 mice.

[4] = daily topical 0.05% cream, 30 mgs back, 10 mgs ear

In the case of CCC(=O)OCC(=O)[C@@]1(OC(=O)CC)[C@@H](C)C[C@H]2[C@@H]3CCC4=CC(=O)C=C[C@]4(C)[C@@]3(F)[C@@H](O)C[C@@]21C [betamethasone dipropionate, reference compound], the spleen weight (C57BL/6 mice [1]; [4]) is reported as “substantial reductions in spleen weight”, the weight loss (C57BL/6 mice [1]; [4]) is reported as “greater degree of weight loss” and the “clinical scores (PASI), protective effect as the disease progressed” value (C57BL/6 mice [1]; prophylactic: injection day -1, BD day 0, later time points) is reported as “protective effect from BD alone was lost”. The “systemic immune suppression / locality of effect” value (C57BL/6 mice [1]; spleen weight at day 5, distal ear thickness (FIG. 4d)) was “caused unwanted systemic immune suppression”.

“(Gd)DOTA-KKKK-PEG-TPGTQSPFFLLLLLTVLTVV (KKKK[PEG]TPGTQSPFF[Ala(3-Me-diazirin-3-yl)][Ala(3-Me-diazirin-3-yl)][Ala(3-Me-diazirin-3-yl)][Ala(3-Me-diazirin-3-yl)][Ala(3-Me-diazirin-3-yl)]TVLTVV; not fully specified (N-terminus); reading uncertain; also: Gd chelated by DOTA; listed as Homo sapiens) [SEQ ID NO: 32]” was tested, and the “specific increase in ear thickness” value (C57BL/6 mice [2]) was “confirmed”.

“AF594-KKKK-PEG-MTPGTQSPFFLLLLLTVLTVV (KKKKMTPGTQSPFFLLLLLTVLTVV; AF594-KKKK-PEG N-terminal; (1)..(1) Alexa Fluor 594 backbone modification; (4)..(5) polyethylene glycol (PEG) backbone modification between residues 4 and 5; listed as Homo sapiens) [SEQ ID NO: 21]” was tested, and the “cells capturing the peptide in the lung” value (C57BL/6 mice [3]) was “primarily captured by neutrophils, alveolar macrophages and DC”, the “cells capturing the peptide in the skin” value (C57BL/6 mice [3]) was “primarily captured in the skin by neutrophils (CD11 b+Ly6G+) or CD11 b+ myeloid cell subsets” and the “inflammatory response (ear thickness over 72 hours)” value (C57BL/6 mice [2]) was “led to a reduced inflammatory response”.

For “Biotin-KKKK-PEG-TPGTQSPFFLLLLL*TVLTVV, wherein L* is photoleucine [SEQ ID NO: 35]”, the “specific increase in ear thickness” value (C57BL/6 mice [2]) was “confirmed”.

For “Biotin-KKKK-peg-QLTLTFVPSTLGFL*TLPVLV (no N-term Met) [scrambled variant of SEQ ID NO. 35, reference compound]”, the “specific increase in ear thickness” value (C57BL/6 mice [2]) was “did not have a reduction in ear inflammation”.

With “KKKKGGGMTPGTQSPFFLLLLLTVLTVV (listed as Homo sapiens) [SEQ ID NO: 22]” the “inflammatory response (ear thickness over 72 hours)” value (C57BL/6 mice [2]) was “led to a reduced inflammatory response”.

With “LLLLLTVLTVV (listed as Homo sapiens) [SEQ ID NO: 2]” the “inflammatory response (ear thickness over 72 hours)” value (C57BL/6 mice [2]) was “led to a reduced inflammatory response”.

In the case of “MTPGTQSPFFLLLLLTVLTVV (listed as Homo sapiens) [SEQ ID NO: 3]”, the “ear swelling, sequence specificity” value (C57BL/6 mice [2]; subcutaneous seven days prior to sensitising with DNFB (FIG. 3a)) is reported as “the effect was specific to the SEQ ID NO: 3 sequence”.
